From patent publication US10874743B2, “IRAK degraders and uses thereof” (Kymera Therapeutics, Inc., priority 2017, dated 2020)

Assays:
[1] = biological target: T1, IRAK4 (Homo sapiens, UniProt Q9NWZ3); test: PBMC degradation assay (western blot, % IRAK4 degraded after 4 hours); format: cell-based; conditions: human PBMCs
T1 sequence (Q9NWZ3 1-460): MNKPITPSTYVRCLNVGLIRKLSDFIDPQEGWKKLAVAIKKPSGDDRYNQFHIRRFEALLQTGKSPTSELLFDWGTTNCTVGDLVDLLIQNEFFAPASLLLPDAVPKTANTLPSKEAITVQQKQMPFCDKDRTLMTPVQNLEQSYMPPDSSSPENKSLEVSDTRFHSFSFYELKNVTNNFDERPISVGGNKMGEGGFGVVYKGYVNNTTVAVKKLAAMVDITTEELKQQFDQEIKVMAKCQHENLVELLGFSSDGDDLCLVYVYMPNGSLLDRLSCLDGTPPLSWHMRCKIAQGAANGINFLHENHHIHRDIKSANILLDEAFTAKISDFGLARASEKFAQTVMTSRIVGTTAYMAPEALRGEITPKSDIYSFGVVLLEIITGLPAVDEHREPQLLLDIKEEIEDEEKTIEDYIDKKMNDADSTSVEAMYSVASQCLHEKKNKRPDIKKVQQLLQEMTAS

[2] = biological target: CRBN-DDB1 / GST-IRAK4 ternary complex (Homo sapiens, UniProt Q96SW2+Q9NWZ3); test: AlphaLISA assay to determine ternary complex formation; format: binding
CRBN-DDB1 / GST-IRAK4 ternary complex, sequence (Q96SW2 whole entry, one chain of several): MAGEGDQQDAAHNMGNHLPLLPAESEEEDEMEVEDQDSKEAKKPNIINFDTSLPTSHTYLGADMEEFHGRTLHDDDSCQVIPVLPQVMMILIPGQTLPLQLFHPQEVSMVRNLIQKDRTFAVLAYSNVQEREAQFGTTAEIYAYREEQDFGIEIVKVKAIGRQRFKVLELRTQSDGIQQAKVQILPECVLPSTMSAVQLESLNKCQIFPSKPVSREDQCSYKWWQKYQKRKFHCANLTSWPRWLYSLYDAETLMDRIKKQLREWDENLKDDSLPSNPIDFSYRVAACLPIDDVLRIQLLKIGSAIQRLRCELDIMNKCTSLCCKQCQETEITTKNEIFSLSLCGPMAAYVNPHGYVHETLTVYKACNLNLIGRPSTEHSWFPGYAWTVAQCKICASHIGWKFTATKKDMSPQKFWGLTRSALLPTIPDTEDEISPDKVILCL
CRBN-DDB1 / GST-IRAK4 ternary complex, sequence (Q16531 whole entry partner, one chain of several): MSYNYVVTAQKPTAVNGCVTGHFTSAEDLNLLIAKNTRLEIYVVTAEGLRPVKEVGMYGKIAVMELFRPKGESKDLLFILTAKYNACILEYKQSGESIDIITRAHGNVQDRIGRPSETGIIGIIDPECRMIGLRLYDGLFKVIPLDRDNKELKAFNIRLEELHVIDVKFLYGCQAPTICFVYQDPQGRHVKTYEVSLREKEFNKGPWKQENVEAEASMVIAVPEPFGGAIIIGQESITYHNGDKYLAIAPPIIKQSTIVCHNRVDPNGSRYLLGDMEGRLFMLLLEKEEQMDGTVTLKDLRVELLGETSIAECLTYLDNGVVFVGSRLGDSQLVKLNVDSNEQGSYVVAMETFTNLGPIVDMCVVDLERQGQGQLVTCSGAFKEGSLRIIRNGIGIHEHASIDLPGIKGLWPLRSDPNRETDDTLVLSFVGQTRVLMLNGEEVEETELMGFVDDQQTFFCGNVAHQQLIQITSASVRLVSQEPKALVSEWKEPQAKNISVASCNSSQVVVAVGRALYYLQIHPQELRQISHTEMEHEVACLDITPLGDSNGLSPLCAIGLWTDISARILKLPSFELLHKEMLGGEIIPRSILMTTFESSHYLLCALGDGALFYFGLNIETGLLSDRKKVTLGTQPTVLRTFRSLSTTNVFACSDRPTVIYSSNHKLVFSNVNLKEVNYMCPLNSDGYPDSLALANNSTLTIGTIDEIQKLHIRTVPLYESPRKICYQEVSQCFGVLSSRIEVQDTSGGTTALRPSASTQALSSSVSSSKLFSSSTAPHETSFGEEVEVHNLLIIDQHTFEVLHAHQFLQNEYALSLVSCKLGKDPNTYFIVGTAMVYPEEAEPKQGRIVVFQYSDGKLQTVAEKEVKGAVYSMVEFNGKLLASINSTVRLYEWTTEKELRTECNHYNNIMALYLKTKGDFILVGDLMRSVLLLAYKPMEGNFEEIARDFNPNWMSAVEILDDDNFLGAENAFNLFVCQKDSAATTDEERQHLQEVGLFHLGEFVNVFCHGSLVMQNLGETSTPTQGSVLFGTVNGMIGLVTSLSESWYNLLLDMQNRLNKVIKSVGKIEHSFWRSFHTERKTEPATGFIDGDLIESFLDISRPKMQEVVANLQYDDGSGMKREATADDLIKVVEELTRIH
Protocol: The assay mixture contains 100 nM CRBN-DDB1, 100 nM GST-IRAK4, 20 μg/mL Nickle Chelate Donor Bead (Perkin Elmer Catalog # AS101D) and 20 μg/mL GSH Acceptor Bead (Perkin Elmer Catalog # AL109C) in a buffer containing 50 mM HEPES, pH 7.5, 100 mM NaCl, 0.1% BSA, 2 mM TCEP, 0.05% Tween-20. […] AlphaLISA signals (Excitation 680 nm and emission 615 nm) were recorded on a Perkin Elmer EnVision 2104 Multilabel reader. The raw data was converted to the relative amount of ternary complex formation by normalization to the signal generated by His-tagged GST protein only. The final data points were plotted and the curves were fit using non-linear regression using GraphPad Prism software.

| PBMC % IRAK4 Degradation [1] | Average % Ternary Complex (N = 2) ([2]; compound concentration 1.00E−07 M) [%] | Average % Ternary Complex (N = 2) ([2]; compound concentration 1.25E−08 M) [%] | Average % Ternary Complex (N = 2) ([2]; compound concentration 1.28E−05 M) [%] | Average % Ternary Complex (N = 2) ([2]; compound concentration 1.60E−06 M) [%] | Average % Ternary Complex (N = 2) ([2]; compound concentration 2.00E−07 M) [%] | Average % Ternary Complex (N = 2) ([2]; compound concentration 2.50E−08 M) [%] | Average % Ternary Complex (N = 2) ([2]; compound concentration 3.20E−06 M) [%] | Average % Ternary Complex (N = 2) ([2]; compound concentration 4.00E−07 M) [%] | Average % Ternary Complex (N = 2) ([2]; compound concentration 5.00E−08 M) [%] | Average % Ternary Complex (N = 2) ([2]; compound concentration 6.25E−09 M) [%] | Average % Ternary Complex (N = 2) ([2]; compound concentration 6.40E−06 M) [%] | Average % Ternary Complex (N = 2) ([2]; compound concentration 8.00E−07 M) [%] | Structure (SMILES) |
| --- | --- | --- | --- | --- | --- | --- | --- | --- | --- | --- | --- | --- | --- |
| A (>50% degradation) | 31.29 | 5.89 | 1.58 | 12.53 | 28.96 | 12.66 | 6.74 | 25.83 | 23.14 | 2.71 | 3.36 | 17.79 | NC(=O)c1nn(-c2ccc(C(=O)NCCOCCOCCNc3cccc4c3C(=O)N(C3CCC(=O)NC3=O)C4=O)cc2)cc1NC(=O)c1coc(-c2ccnc(NCC(F)(F)F)c2)n1 (centres unmarked) [I-127, N-[3-carbamoyl-1-[4-[2-[2-[2-[[2-(2,6-dioxo-3-piperidyl)-1,3-dioxo-isoindolin-4-yl]amino]ethoxy]ethoxy]ethylcarbamoyl]phenyl]pyrazol-4-yl]-2-[2-(2,2,2-trifluoroethylamino)-4-pyridyl]oxazole-4-carboxamide] |
| A (>50% degradation) | – | – | – | – | – | – | – | – | – | – | – | – | NC(=O)c1nn(-c2ccc(C(=O)NCCCCCNCCNc3cccc4c3C(=O)N(C3CCC(=O)NC3=O)C4=O)cc2)cc1NC(=O)c1coc(-c2ccnc(NCC(F)(F)F)c2)n1 (centres unmarked) [I-172, N-[3-carbamoyl-1-[4-[5-[2-[[2-(2,6-dioxo-3-piperidyl)-1,3-dioxo-isoindolin-4-yl]amino]ethylamino]pentylcarbamoyl]phenyl]pyrazol-4-yl]-2-[2-(2,2,2-trifluoroethylamino)-4-pyridyl]oxazole-4-carboxamide] |
